Experimental data as given in US7744854B2, “Method for optimizing cancer therapy by monitoring maturation of tumor associated vasculature by selenium” (Health Research, Inc., priority 2006, dated 2010).
Entries after “also recorded” stand apart in the source; their conditions may differ.

How the values were obtained:
[1] = tested on: FaDu xenografts; assay: Intratumoral microvessel density (CD31 immunostaining) in FaDu xenografts; assay type: in vivo; details: 0.2 mg/mouse/day, after 2 weeks, p<0.05
Source text: Microvessels were counted based on endothelial cells immunostaining with CD31 Mab on paraffin sections, after zinc fixative (p<0.05 in each system).

[2] = tested on: matrigel plug containing cultured FaDu tumor cells; assay: Matrigel plug (s.c.) containing cultured FaDu tumor cells, microvessel count; assay type: in vivo; details: 0.2 mg/mouse/day, after 1 week, 10^6 cells s.c., p<0.05
Source text: (§1) Thus, selenium inhibits proliferation of endothelial cells.

[3] = tested on: VEGF; assay: VEGF expression (WB) and secretion (ELISA) in FaDu tumor cells in vitro; assay type: cell-based
Source text: as §1

[4] = tested on: endothelial cells in the angiogenic microvessels; assay: CD31/Tunnel double staining of angiogenic microvessels; assay type: in vivo, mouse
Source text: as §1

[5] = tested on: tumor microvessels; assay: Histopathological studies for direct antivascular effect; assay type: in vivo, mouse; details: histopathology
Source text: as §1

[6] = tested on: FaDu xenografts; assay: DCE-MRI (albumin-GdDTPA) of tumor vascular permeability and volume in FaDu xenografts; assay type: in vivo, mouse
Description: FaDu xenograft bearing mice were used. MSC was administered for 14 days. Mice were imaged using a 4.7-T/33-cm horizontal bore magnet (GE NMR Instruments, Fremont, Calif.) incorporating AVANCE digital electronics [Bruker Biospec, ParaVision 3.0.2 OS); Bruker Medical, Billerica, Mass.], a removable gradient coil insert (G060; Bruker Medical) generating a maximum field strength of 950 mT/m, and a custom-designed radiofrequency transreceiver coil. Animals were anesthetized before imaging with a ketamine/xylazine mixture (10:1) at a dose of […], secured in a mouse coil chamber, and positioned on a scanner. The animals were kept warm in the magnet using a circulating water bath maintained at 37 jC. […] T1 relaxation rates were determined using a saturation recovery, fast spin echo sequence with an effective echo time (TE) of 10 milliseconds, and a TR ranging from 360 to 6000 milliseconds [FOV=32×32 mm, slice thickness=1.0 mm, matrix size=128×96 pixels, number of excitations (NEX)=3]. […]
Image processing and analysis were carried out using commercially available software (ANALYZE PC, Version 5.0; Biomedical Imaging Resource, Mayo Foundation, Rochester, Minn.) (Matlab's curve-fitting toolbox, Matlab Version 7.0; Math Works, Inc., Natick, Mass.). […] Percent tumor enhancement (E) was then calculated from relative intensity (RI) […]

[7] = tested on: FaDu tumors; assay: CD31/α-SMA double immunohistochemical staining of FaDu tumors; assay type: in vivo, mouse; details: day 14 of MSC treatment
Source text: MSC treatment results in reduction of tumor vascular leakiness as reflected by the slope of the ΔR1 values in FaDu xenografts. This could be a result of tumor vascular maturation as determined by the double immunohistochemical staining for the pan endothelial cell adhesion molecule (PECAM; CD31) and α-SMA in control and MSC treated mice (Day 14 of MSC treatment).
This is in agreement with our estimates of MVD as MSC treatment does lead to a reduction in MVD. However, the decrease in permeability could be a result of the ‘maturation’ effect of MSC. To validate findings from the imaging studies, immunohistochemical staining for the pan endothelial cell adhesion molecule (PECAM; CD31) along with staining with alpha-smooth muscle actin was performed in control and MSC-treated mice (Day 14 after treatment).

[8] = tested on: FaDu xenografts; assay: Hoechst 33342 / DiOC7 fluorescent dye uptake, functional tumor vasculature; assay type: in vivo, mouse; details: post 14 days MSC treatment
Description: Initial studies on uptake of fluorescent dyes Hoechst 33342 (i.v at 15 mg/kg in sterile phosphate buffered saline) followed 20 minutes later with DiOC7 (i.v. at 1 mg/kg in dimethyl sulfoxide) in mice bearing A253 and FaDu xenografts are indicative of tumor vascular maturation by MSC. Uptake of both dyes is indicative of functional vasculature while uptake of only one dye is indicative of […] vasculature. […] Abnormal vasculature shut off when challenged with dyes similar to Hoechst 33342 while blood flow through ‘normalized’ vasculature is not affected.

[9] = tested on: HNSCC xenografts FaDu and A253; assay: Tumor vascular maturation index and mean vessel lumen area; assay type: in vivo; details: vs untreated control tumors
Source text: FIG. 5A summarizes effect of MSC treatment on tumor vascular maturation index (VMI) and on the mean tumor vessel lumen area (FIG. 5B) in HNSCC xenografts FaDu and A253. […] Treatment with MSC makes the arrangement less chaotic and more ‘normalized’ in arrangement.

[10] = Tumor drug uptake by HPLC in FaDu xenografts; assay type: in vivo
Description: FIGS. 6A and 6B show the effect of 14 days pre-treatment with MSC prior to drug administration on tumor drug uptake (2 hours post i.v.) as determined by HPLC in FaDu xenografts for CPT-11 and doxorubicin respectively. […] The drug concentration in the normal tissues studied such as liver, plasma.

[11] = tested on: HNSCC xenograft FaDu; assay: Dose and schedule dependence of therapeutic synergy with irinotecan in FaDu xenograft; assay type: in vivo
Source text: A minimum 7 days pretreatment with MSC is required to achieve optimal therapeutic synergy with a representative anticancer drug—irinotecan. […] Daily pretreatment for 7-14 days was critical to achieve the selective effects of selenium. This reflects the time required for priming of tumor vasculature by MSC in order to see the therapeutic end results.

[12] = tested on: CD36; assay: Western blot of FaDu xenografts: CD36; assay type: in vivo; details: selenium for 14 days
Source text: (§2) MSC up-regulates Thrombospondin-1 (TSP-1) a potent inhibitor of angiogenesis and important controller of tumor growth and its receptor CD36 (FIG. 8A), HIF-1α expression (FIG. 8B) and relative intensity (FIG. 8C). To assess the effects of selenium on TVM, the expression of molecular markers associated with tumor hypoxia, drug resistance and increased proliferation, namely, hypoxia-inducible factor 1∝ (HIF-1∝), Cyclooxygenase-2 (Cox-2), inducible nitric oxide, propyl hydroxyl domain (PHD) and vascular endothelial growth factor (VEGF) were evaluated in xenograft tumors. Selenium was administered for 14 days. Western blot analysis was performed to determine the effect of MSC treatment on different antiangiogenic markers TSP-1, CD36, Delta-like 4 ligand (DLL4) and hypoxia inducible factor HIF-1α Data in FIG. 8A indicate that CD36 is up regulated in FaDu xenografts treated with MSC. Along with the CD36 MSC up regulates TSP-1, which is known to be involved in the inhibition of angiogenesis. Further, MSC down-regulates DLL4 in FaDu xenografts.

[13] = tested on: Thrombospondin-1 (TSP-1); assay: Western blot of FaDu xenografts: TSP-1; assay type: in vivo; details: selenium for 14 days
Source text: as §2

[14] = tested on: Delta-like 4 ligand (DLL4); assay: Western blot of FaDu xenografts: DLL4; assay type: in vivo; details: selenium for 14 days
Source text: as §2

[15] = tested on: HIF-1α; assay: HIF-1α expression in hypoxic FaDu tumor cells in vitro; assay type: cell-based; details: 24 hr hypoxic conditions, preliminary results
Source text: To determine whether HIF-1α is a target for MSC, FaDu tumor cells were exposed in vitro for 24 hr to hypoxic conditions and analyzed for HIF-1α expression to FaDu cells. […] The data in FIG. 8C is graphic representation of the relative intensity of each marker.

[16] = combination treatment with SN-38
[17] = 14 days MSC pre-treatment, 2 hours post i.v., vs monotherapy

## C[Se]C[C@H](N)C(=O)O [MSC, methylselenocysteine]
[1]
  intratumoral microvessel density (MVD): decreases
[2]
  microvessel density in matrigel plug containing FaDu tumor cells: decreases
[3]; [16]
  VEGF expression (WB): down regulates
  VEGF secretion (ELISA): down regulates
[3]; selenium alone
  VEGF secretion: decreased
[4]
  apoptotic endothelial cell nuclei in angiogenic microvessels: did not show apoptotic endothelial cell nuclei
[5]
  direct antivascular effect (microvessel necrosis, endothelial cell death, microthrombus formation): did not show any signs of other direct antivascular effect
[6]; 14 days MSC treatment
  tumor vascular volume: statistically significant decrease
[6]; 14 days MSC vs volume matched control
  tumor vascular permeability (leakiness; slope of ΔR1): reduction; also recorded: statistically significant decrease
[7]
  pericyte recruitment / α-SMA staining of tumor vasculature: Increased pericyte recruitment; also recorded: increased staining of α-SMA
[8]
  vasculature with uptake of both dyes ('normalized' functional vasculature): approximately 80%
[9]; p<0.0001
  mean tumor vessel lumen area: reduction
[9]; p<0.05
  tumor vascular maturation index (VMI): significant increase
[10]; [17]
  intratumoral drug concentration, CPT-11 (SN-38 per FIG. 6A): more than doubling
  intratumoral drug concentration, doxorubicin: more than doubling
[10]; liver, plasma, kidney, combination with MSC vs monotherapy
  drug concentration in normal tissues: did not show a significant increase
[11]; daily MSC
  minimum pretreatment required for optimal therapeutic synergy with irinotecan: ≥ 7 days
[11]; with irinotecan
  therapeutic effect: dose and schedule dependent
[12]
  CD36 expression: up regulated
[13]
  TSP-1 expression: up regulates
[14]
  DLL4 expression: down-regulates
[15]
  HIF-1α expression: significant inhibition
